Results: PubChem BioAssay AID1918934 (Molecular Pharmacology Branch, DTP, NCI, 2023)
Values joined by “and” are separate entries in the source; they are usually repeats but may differ in a detail not shown here. Identical values can stand only once. Values belong to the molecule of their own block, whether it stands above or below them.

Test system: 292921-168-R-J2-PDC complex spheroid viability
Test: Anticancer human tumor 292921-168-R-J2-PDC patient-derived pancreatic carcinoma cell line growth inhibition
Conditions: for viability, T/C: stronger effect = lower value
Source text: Multicellular complex tumor spheroid response to LSD1 Inhibitor Iadademstat in combination with a variety of drugs and investigational agents in selected tumor cell lines
The current study was undertaken to assess response to LSD1 inhibitors in combination with standard-of-care drugs and investigational agents in solid tumor complex spheroid models as well as in the K-562 leukemia. Complex spheroids include a stromal component modeled by human endothelial cells (HUVEC) and fibroblasts modeled by human mesenchymal stem cells (MSCs). The concentration ranges selected for each drug and investigational agent were based upon clinically achievable concentrations if the clinical Cmax of the agent was known.
Compounds. The drugs and investigational agents used in this study are listed on Table 1. All of the agents used, including staurosporine (NSC755774) and gemcitabine (NSC613327), were obtained from the Developmental Therapeutics Program, NCI. FDA-approved anticancer drugs are available from the NCI at http://dtp.nci.nih.gov/branches/dscb/oncology_drugset_explanation.html. Drugs and investigational agents were >95% pure by proton nuclear magnetic resonance (NMR) and liquid chromatography/mass spectrometry (LC/MS). Stock solutions were prepared at 400x in DMSO, stored at -70 degrees C, and diluted in fresh medium prior to their use. The final concentration of DMSO in cell culture wells never exceeded 0.25% (v/v). The FDA-approved anticancer drug set is available from the Developmental Therapeutics Program at https://dtp.cancer.gov/organization/dscb/obtaining/available_plates.htm. All drugs and investigational agents were tested over a range starting from a high concentration at or near the clinical Cmax and decreasing in half-log increments. If the clinical Cmax for an agent had not been determined, the highest concentration tested was 10 microM.
Cell Lines. The patient-derived cancer cell (PDC) lines: 292921-168-R-J2-PDC, K24384-001-R-PDC, and 521955-158-R2-J5-PDC pancreatic carcinomas, 556581-035-R-J1 ovarian carcinoma, 324938-238-R-J1-PDC, 855422-203-R-J1-PDC and 883617-216-R-J1-PDC urothelial bladder carcinomas, 743489-274-T-PDC renal cell carcinoma, 138582-R-J1 Merkel cell tumor, K60290-347-R-J1 and K57222-313-R-J1-PDC glioblastomas, 653999-131-R-J2-PDC, LG0703-F948-PDC, and 349418-098-R-PDC non-small cell lung carcinomas, 885512-296-R-J2-PDC, 171881-019-R-J1-PDC breast carcinomas and 186277-243-T-J2-PDC and 233499-124-R-J2-PDC colon carcinomas were obtained from the NCI Patient-Derived Models Repository (PDMR, https://pdmr.cancer.gov). The established cell lines NCI/ADR-RES (RRID:CVCL_14520 and OVCAR-5 (RRID:CVCL_1628) ovarian carcinomas, 786-O (RRID:CVCL_1051) and A498 (RRID:CVCL_A498) renal cell carcinoma, NCI-H211 (ATCC, cat. CRL-5824; RRID:CVCL_1529), NCI-H196 (ATCC, cat. CRL-5823, RRID:CVCL_1509), SW 1271 (ATCC, cat. CRL-2177, RRID:CVCL_1716) and NCI-H1876 (ATCC, cat. CRL-5902, RRID:CVCL_1503) small cell lung carcinomas, MDA-MB-231 (RRID:CVCL_0062) and MDA-MB-468 (RRID:CVCL_0419)breast carcinomas (10-12). Pooled donor human umbilical vein endothelial cells (HUVEC, Lonza, cat. CC-2519) and human mesenchymal stem cells (hMSC, Lonza, cat. PT-2501) were purchased from Lonza (Walkersville, MD).
Cell Culture. All cells were maintained in an incubator at 37 degrees C and 5% CO2 with 95% humidity. The PDC lines were cultured according to standard operating procedures established by the NCI PDMR (https://pdmr.cancer.gov). Briefly all PDCs were thawed and cultured in Matrigel-coated flasks prepared with a working solution of 1X Ham's F-12 nutrient mix, without supplementation (Invitrogen, Waltham, MA, cat. 11765054), 100 U/mL penicillin-streptomycin (Invitrogen, cat. 15140122), and 2.5% Matrigel (Corning Inc., Corning, NY, cat. 354248) for the first three passages. […]
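Further: seven day compound exposure before luminescent viability read.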
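Wherever viability, T/C is given: 100% = DMSO vehicle control wells.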

IC50 (curve of compound): 39.7 nM and 52.7 nM
Structure (SMILES): COc1cc(C2c3cc4c(cc3C(OC3OC5COC(C)OC5C(O)C3O)C3COC(=O)C23)OCO4)cc(OC)c1O (configuration not stated)
viability, T/C (compound 0.00949 µM): 91.1% and 92% | viability, T/C (compound 0.03 µM): 57.8% and 69.4% | viability, T/C (compound 0.0949 µM): 26.8% and 28.4% | viability, T/C (compound 0.3 µM): 17.8% and 16.7% | viability, T/C (compound 0.949 µM): 8.57% and 7.24% | viability, T/C (compound 3 µM): 5.06% and 4.06%

Structure (SMILES): CCN(c1cc(-c2ccc(CN3CCOCC3)cc2)cc(C(=O)NCc2c(C)cc(C)[nH]c2=O)c1C)C1CCOCC1 + NC1CC1c1ccc(-c2cccc(O)c2)cc1
IC50 (curve of first compound, second compound 0.1 µM): 1080 nM | IC50 (curve of first compound, second compound 0.316 µM): 1020 nM | IC50 (curve of first compound, second compound 1 µM): 1100 nM | IC50 (curve of first compound, second compound 3.16 µM): 1070 nM | IC50 (curve of first compound, second compound 10 µM): 763 nM | viability, T/C (second compound 0.1 µM, first compound 0.00949 µM): 77.2% | viability, T/C (second compound 0.1 µM, first compound 0.03 µM): 79.2% | viability, T/C (second compound 0.1 µM, first compound 0.0949 µM): 81.9% | viability, T/C (second compound 0.1 µM, first compound 0.3 µM): 77.1% | viability, T/C (second compound 0.1 µM, first compound 0.949 µM): 53.5% | viability, T/C (second compound 0.1 µM, first compound 3 µM): 22.1% | viability, T/C (second compound 0.316 µM, first compound 0.00949 µM): 69.5% | viability, T/C (second compound 0.316 µM, first compound 0.03 µM): 82.7% | viability, T/C (second compound 0.316 µM, first compound 0.0949 µM): 77.5% | viability, T/C (second compound 0.316 µM, first compound 0.3 µM): 71.7% | viability, T/C (second compound 0.316 µM, first compound 0.949 µM): 51.9% | viability, T/C (second compound 0.316 µM, first compound 3 µM): 21.7% | viability, T/C (second compound 1 µM, first compound 0.00949 µM): 68.6% | viability, T/C (second compound 1 µM, first compound 0.03 µM): 72% | viability, T/C (second compound 1 µM, first compound 0.0949 µM): 68.8% | viability, T/C (second compound 1 µM, first compound 0.3 µM): 68.4% | viability, T/C (second compound 1 µM, first compound 0.949 µM): 54.5% | viability, T/C (second compound 1 µM, first compound 3 µM): 19.4% | viability, T/C (second compound 3.16 µM, first compound 0.00949 µM): 70.7% | viability, T/C (second compound 3.16 µM, first compound 0.03 µM): 75.3% | viability, T/C (second compound 3.16 µM, first compound 0.0949 µM): 70.2% | viability, T/C (second compound 3.16 µM, first compound 0.3 µM): 64.5% | viability, T/C (second compound 3.16 µM, first compound 0.949 µM): 54.1% | viability, T/C (second compound 3.16 µM, first compound 3 µM): 22.3% | viability, T/C (second compound 10 µM, first compound 0.00949 µM): 62.7% | viability, T/C (second compound 10 µM, first compound 0.03 µM): 62.5% | viability, T/C (second compound 10 µM, first compound 0.0949 µM): 62.5% | viability, T/C (second compound 10 µM, first compound 0.3 µM): 60.2% | viability, T/C (second compound 10 µM, first compound 0.949 µM): 47.6% | viability, T/C (second compound 10 µM, first compound 3 µM): 21.8%
